Source: patent publication US20260049085A1, “CYCLIC COMPOUNDS AND METHODS OF USING SAME” (SCHRÖDINGER, INC., priority 2022, published 2026)

Molecular target: T1, full-length MALT1 protein His-MALT1(1-824) (Homo sapiens, UniProt Q9UDY8)
T1 construct: full-length MALT1 protein His-MALT1(1-824); His (N); made in house; host or cells: baculovirus-infected insect cells
T1 sequence (Q9UDY8 1-824): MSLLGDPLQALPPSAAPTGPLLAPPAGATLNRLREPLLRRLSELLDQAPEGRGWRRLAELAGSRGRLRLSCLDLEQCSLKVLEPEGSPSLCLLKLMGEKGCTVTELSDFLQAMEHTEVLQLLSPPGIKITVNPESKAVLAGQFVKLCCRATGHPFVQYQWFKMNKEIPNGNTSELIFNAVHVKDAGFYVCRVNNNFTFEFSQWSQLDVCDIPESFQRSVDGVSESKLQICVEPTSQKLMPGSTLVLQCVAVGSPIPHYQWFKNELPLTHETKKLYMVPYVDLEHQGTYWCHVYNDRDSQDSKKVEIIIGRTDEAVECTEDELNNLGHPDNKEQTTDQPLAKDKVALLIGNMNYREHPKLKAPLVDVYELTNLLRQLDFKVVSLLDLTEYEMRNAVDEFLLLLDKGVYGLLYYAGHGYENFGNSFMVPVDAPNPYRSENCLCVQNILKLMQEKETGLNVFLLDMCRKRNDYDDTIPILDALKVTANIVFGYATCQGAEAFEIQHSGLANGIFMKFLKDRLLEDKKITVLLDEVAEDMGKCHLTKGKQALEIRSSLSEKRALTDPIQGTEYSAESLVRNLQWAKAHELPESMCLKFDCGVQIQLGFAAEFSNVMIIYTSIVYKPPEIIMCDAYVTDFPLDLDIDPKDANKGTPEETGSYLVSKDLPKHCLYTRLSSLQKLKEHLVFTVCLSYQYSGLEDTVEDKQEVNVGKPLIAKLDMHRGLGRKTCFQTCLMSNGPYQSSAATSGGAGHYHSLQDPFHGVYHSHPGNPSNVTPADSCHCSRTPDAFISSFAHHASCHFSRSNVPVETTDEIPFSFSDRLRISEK
Assay: MALT1 protease assay (Ac-LRSR-AMC tetrapeptide substrate, fluorescence)
Type: biochemical
Settings: 1 nM MALT1, 25 μM Ac-LRSR-AMC, 2 h pre-incubation, 8 hr incubation at RT
Method: MALT1 protease activity was assessed in an in vitro assay using a tetrapeptide as substrate and full-length MALT1 protein His-MALT1(1-824) purified from baculovirus-infected insect cells.
The final assay buffer includes 1 nM of MALT1 full-length protein, 25 μM Ac-LRSR-AMC substrate, 50 mM Tris pH 7.5, 600 mM Sodium Citrate, 1 mM DTT, 1 mM EDTA, and 0.05% BSA in 384-well plate format using black microtiter square well plates (Optiplate 384-F, Perkin Elmer).
Test compounds were dissolved in 100% DMSO stock of 10 mM, with final DMSO concentration of 0.1%. Test compounds were pre-incubated with MALT1 protein for 2 h at room temperature. Substrate was added after the pre-incubation and fluorescence signal was measured using Envision at excitation 355 nm and emission 460 nm after 8 hr incubation at RT.
The fluorescence units were transformed to percentage of remaining activity by using the high control (HC, median of fluorescence signal from wells containing MALT1 protein, substrate, and DMSO) and low control (LC, median of fluorescence signal from wells with substrate only) with the formula below: […]
IC50 and Hill coefficients were obtained using Graph Pad Prism (Graph Pad software, Inc, USA) with non-linear regression analysis.

IC50, < 10 nM:
C[C@]1(c2cncs2)C[C@H](C(=O)Nc2cnc(-n3nccn3)c(Cl)c2)c2cnc3cc(F)nn3c21 (single isomer, unassigned) [Example 36]
CC(C)n1cc([C@@]2(C)C[C@H](C(=O)Nc3cnc(-n4nccn4)c(Cl)c3)c3cnc4cc(F)nn4c32)cn1 (single isomer, unassigned) [Example 48]
C[C@]1(c2cnn(C3CC3)c2)C[C@H](C(=O)Nc2cnc(OC(F)F)c(C#N)c2)c2cnc3cc(F)nn3c21 (single isomer, unassigned) [Example 72]

IC50, ≥ 1000 nM:
C[C@@]1(c2cncs2)C[C@@H](C(=O)Nc2cnc(-n3nccn3)c(Cl)c2)c2cnc3cc(F)nn3c21 (single isomer, unassigned) [Example 37]
Cn1cc([C@]2(C)C[C@@H](C(=O)Nc3cnc(OC(F)F)c(C#N)c3)c3cnc4cc(F)nn4c32)cn1 (single isomer, unassigned) [Example 41]
Cn1cc([C@]2(C)C[C@@H](C(=O)Nc3ccnc(C(F)(F)F)c3)c3cnc4cc(Cl)nn4c32)cn1 (single isomer, unassigned) [Example 45]
Cn1cc([C@@]2(C)C[C@@H](C(=O)Nc3ccnc(C(F)(F)F)c3)c3cnc4cc(Cl)nn4c32)cn1 (single isomer, unassigned) [Example 47]
CC(C)n1cc([C@]2(C)C[C@@H](C(=O)Nc3cnc(-n4nccn4)c(Cl)c3)c3cnc4cc(F)nn4c32)cn1 (single isomer, unassigned) [Example 49]
Cn1cc([C@]2(C)C[C@@H](C(=O)Nc3cnc(OC(F)(F)F)c(C#N)c3)c3cnc4cc(F)nn4c32)cn1 (single isomer, unassigned) [Example 53]
Cc1cc(NC(=O)[C@@H]2C[C@@](C)(c3cnn(C)c3)c3c2cnc2cc(F)nn32)cnc1-n1nccn1 (single isomer, unassigned) [Example 57, trans-2-fluoro-8-methyl-8-(1-methyl-1H-pyrazol-4-yl)-N-(5-methyl-6-(2H-1,2,3-triazol-2-yl)pyridin-3-yl)-7,8-dihydro-6H-cyclopenta[e]pyrazolo[1,5-a]pyrimidine-6-carboxamide]
Cc1cc(NC(=O)[C@H]2C[C@@](C)(c3cnn(C)c3)c3c2cnc2cc(F)nn32)cnc1-n1nccn1 (single isomer, unassigned) [Example 58]
Cc1cc(NC(=O)[C@@H]2C[C@](C)(c3cnn(C)c3)c3c2cnc2cc(F)nn32)cnc1-n1nccn1 (single isomer, unassigned) [Example 59]
Cc1cc(NC(=O)[C@@H]2C[C@@](C)(c3cnn(C)c3)c3c2cnc2cc(F)nn32)cnc1OC(F)F (single isomer, unassigned) [Example 61]
Cc1cc(NC(=O)[C@H]2C[C@@](C)(c3cnn(C)c3)c3c2cnc2cc(F)nn32)cnc1OC(F)F (single isomer, unassigned) [Example 62]
Cc1cc(NC(=O)[C@@H]2C[C@](C)(c3cnn(C)c3)c3c2cnc2cc(F)nn32)cnc1OC(F)F (single isomer, unassigned) [Example 63]
Cn1nccc1[C@]1(C)C[C@@H](C(=O)Nc2cnc(-n3nccn3)c(Cl)c2)c2cnc3cc(F)nn3c21 (single isomer, unassigned) [Example 65]
Cn1nccc1[C@@]1(C)C[C@@H](C(=O)Nc2cnc(-n3nccn3)c(Cl)c2)c2cnc3cc(F)nn3c21 (single isomer, unassigned) [Example 67]
Cn1ccc([C@]2(C)C[C@@H](C(=O)Nc3cnc(OC(F)F)c(C#N)c3)c3cnc4cc(F)nn4c32)n1 (single isomer, unassigned) [Example 69]
Cn1ccc([C@@]2(C)C[C@@H](C(=O)Nc3cnc(OC(F)F)c(C#N)c3)c3cnc4cc(F)nn4c32)n1 (single isomer, unassigned) [Example 71]
C[C@@]1(c2cnn(C3CC3)c2)C[C@@H](C(=O)Nc2cnc(OC(F)F)c(C#N)c2)c2cnc3cc(F)nn3c21 (single isomer, unassigned) [Example 73]

IC50, 100 to 1000 nM:
Cn1ccc([C@@]2(C)C[C@@H](C(=O)Nc3cnc(-n4nccn4)c(Cl)c3)c3cnc4cc(F)nn4c32)n1 (single isomer, unassigned) [Example 35]
Cn1cc([C@]2(C)C[C@H](C(=O)Nc3cnc(OC(F)F)c(C#N)c3)c3cnc4cc(F)nn4c32)cn1 (single isomer, unassigned) [Example 42]
Cn1cc([C@@]2(C)C[C@@H](C(=O)Nc3cnc(OC(F)F)c(C#N)c3)c3cnc4cc(F)nn4c32)cn1 (single isomer, unassigned) [Example 43]
Cn1cc([C@]2(C)C[C@H](C(=O)Nc3ccnc(C(F)(F)F)c3)c3cnc4cc(Cl)nn4c32)cn1 (single isomer, unassigned) [Example 46]
CC(C)n1cc([C@@]2(C)C[C@@H](C(=O)Nc3cnc(-n4nccn4)c(Cl)c3)c3cnc4cc(F)nn4c32)cn1 (single isomer, unassigned) [Example 51]
Cn1cc([C@]2(C)C[C@H](C(=O)Nc3cnc(OC(F)(F)F)c(C#N)c3)c3cnc4cc(F)nn4c32)cn1 (single isomer, unassigned) [Example 54]
Cn1cc([C@@]2(C)C[C@@H](C(=O)Nc3cnc(OC(F)(F)F)c(C#N)c3)c3cnc4cc(F)nn4c32)cn1 (single isomer, unassigned) [Example 55]
Cn1nccc1[C@]1(C)C[C@H](C(=O)Nc2cnc(-n3nccn3)c(Cl)c2)c2cnc3cc(F)nn3c21 (single isomer, unassigned) [Example 66]
Cn1ccc([C@]2(C)C[C@H](C(=O)Nc3cnc(OC(F)F)c(C#N)c3)c3cnc4cc(F)nn4c32)n1 (single isomer, unassigned) [Example 70]

IC50, 10 to 100 nM:
C[C@@]1(c2cncs2)C[C@H](C(=O)Nc2cnc(-n3nccn3)c(Cl)c2)c2cnc3cc(F)nn3c21 (single isomer, unassigned) [Example 38]
C[C@]1(c2cncs2)C[C@@H](C(=O)Nc2cnc(-n3nccn3)c(Cl)c2)c2cnc3cc(F)nn3c21 (single isomer, unassigned) [Example 39]
Cn1cc([C@@]2(C)C[C@H](C(=O)Nc3ccnc(C(F)(F)F)c3)c3cnc4cc(Cl)nn4c32)cn1 (single isomer, unassigned) [Example 44]
CC(C)n1cc([C@]2(C)C[C@H](C(=O)Nc3cnc(-n4nccn4)c(Cl)c3)c3cnc4cc(F)nn4c32)cn1 (single isomer, unassigned) [Example 50]
Cn1cc([C@@]2(C)C[C@H](C(=O)Nc3cnc(OC(F)(F)F)c(C#N)c3)c3cnc4cc(F)nn4c32)cn1 (single isomer, unassigned) [Example 52]
Cc1cc(NC(=O)[C@H]2C[C@](C)(c3cnn(C)c3)c3c2cnc2cc(F)nn32)cnc1-n1nccn1 (single isomer, unassigned) [Example 56, trans-2-fluoro-8-methyl-8-(1-methyl-1H-pyrazol-4-yl)-N-(5-methyl-6-(2H-1,2,3-triazol-2-yl)pyridin-3-yl)-7,8-dihydro-6H-cyclopenta[e]pyrazolo[1,5-a]pyrimidine-6-carboxamide]
Cc1cc(NC(=O)[C@H]2C[C@](C)(c3cnn(C)c3)c3c2cnc2cc(F)nn32)cnc1OC(F)F (single isomer, unassigned) [Example 60]
Cn1nccc1[C@@]1(C)C[C@H](C(=O)Nc2cnc(-n3nccn3)c(Cl)c2)c2cnc3cc(F)nn3c21 (single isomer, unassigned) [Example 64]
C[C@@]1(c2cnn(C3CC3)c2)C[C@H](C(=O)Nc2cnc(OC(F)F)c(C#N)c2)c2cnc3cc(F)nn3c21 (single isomer, unassigned) [Example 74]
